US20230203043A1, “NOVEL IMIDAZOPYRAZINE DERIVATIVES” (Hoffmann-La Roche Inc., priority 2020, published 2023)
Counter-ions that a name gives are not always drawn.

system: Acinetobacter baumannii ATCC17961; experiment: Antimicrobial susceptibility testing: 90% growth inhibitory concentration (IC90) determination in Iso-Sensitest broth, OD600 growth; format: cell-based; conditions: Acinetobacter baumannii, ATCC17961, 16 h, read-out: A. baumannii ATCC 17961 IC90 (uM), strain ATCC 17961, OD600 growth over 16 h
Method in brief: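 Serial twofold dilution, 10 points, e.g. 50–0.097 μM final; ~5×10^(5) CFU/ml; 35±2° C, 16 h; kinetic OD600 every 20 min; IC90 from log-phase inhibition.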

Row | Compound | IC90 [µM]
1 | NCCNC(=O)CN1CCN(C(=O)c2ccc(Nc3nccn4c(-c5cn(CC(F)F)nc5C(F)(F)F)cnc34)cc2Cl)CC1 [Example 598, N-(2-aminoethyl)-2-(4-(2-chloro-4-((3-(1-(2,2-difluoroethyl)-3-(trifluoromethyl)-1H-pyrazol-4-yl)imidazo[1,2-a]pyrazin-8-yl)amino)benzoyl)piperazin-1-yl)acetamide formate] | 0.359
2 | O=C(CN1CCN(C(=O)c2ccc(Nc3nccn4c(-c5cn(CC(F)F)nc5C(F)(F)F)cnc34)cc2Cl)CC1)NC1CNC1 [Example 599, N-(azetidin-3-yl)-2-(4-(2-chloro-4-((3-(1-(2,2-difluoroethyl)-3-(trifluoromethyl)-1H-pyrazol-4-yl)imidazo[1,2-a]pyrazin-8-yl)amino)benzoyl)piperazin-1-yl)acetamide formate] | 0.522
3 | N#CCn1cc(-c2cnc3c(Nc4ccc(C(=O)N5CCN(CC(=O)NCCN)CC5)c(Cl)c4)nccn23)c(C(F)(F)F)n1 [Example 602, N-(2-aminoethyl)-2-(4-(2-chloro-4-((3-(1-(cyanomethyl)-3-(trifluoromethyl)-1H-pyrazol-4-yl)imidazo[1,2-a]pyrazin-8-yl)amino)benzoyl)piperazin-1-yl)acetamide formate] | 0.448
4 | N#CCn1cc(-c2cnc3c(Nc4ccc(C(=O)N5CCN(CC(=O)NCCCN)CC5)c(Cl)c4)nccn23)c(C(F)(F)F)n1 [Example 603, N-(3-aminopropyl)-2-(4-(2-chloro-4-((3-(1-(cyanomethyl)-3-(trifluoromethyl)-1H-pyrazol-4-yl)imidazo[1,2-a]pyrazin-8-yl)amino)benzoyl)piperazin-1-yl)acetamide formate] | 0.384
5 | N#CCn1cc(-c2cnc3c(Nc4ccc(C(=O)N5CCN(CC(=O)NC6CNC6)CC5)c(Cl)c4)nccn23)c(C(F)(F)F)n1 [Example 604, N-(azetidin-3-yl)-2-(4-(2-chloro-4-((3-(1-(cyanomethyl)-3-(trifluoromethyl)-1H-pyrazol-4-yl)imidazo[1,2-a]pyrazin-8-yl)amino)benzoyl)piperazin-1-yl)acetamide formate] | 0.602
6 | NCCCNC(=O)CN1CCN(C(=O)c2ccc(Nc3nccn4c(-c5cn(CC(F)F)nc5C(F)(F)F)cnc34)cc2Cl)CC1 [Example 606, N-(3-aminopropyl)-2-(4-(2-chloro-4-((3-(1-(2,2-difluoroethyl)-3-(trifluoromethyl)-1H-pyrazol-4-yl)imidazo[1,2-a]pyrazin-8-yl)amino)benzoyl)piperazin-1-yl)acetamide formate] | 0.303
7 | N#CCn1cc(-c2cnc3c(Nc4ccc(C(=O)N5CCN(CC(=O)N6CCNCC6)CC5)c(Cl)c4)nccn23)c(C(F)(F)F)n1 [Example 607, 2-(4-(8-((3-chloro-4-(4-(2-oxo-2-(piperazin-1-yl)ethyl)piperazine-1-carbonyl)phenyl)amino)imidazo[1,2-a]pyrazin-3-yl)-3-(trifluoromethyl)-1H-pyrazol-1-yl)acetonitrile formate] | 0.878
8 | O=C(CN1CCN(C(=O)c2ccc(Nc3nccn4c(-c5cn(CC(F)F)nc5C(F)(F)F)cnc34)cc2Cl)CC1)N1CCNCC1 [Example 608, 2-(4-(2-chloro-4-((3-(1-(2,2-difluoroethyl)-3-(trifluoromethyl)-1H-pyrazol-4-yl)imidazo[1,2-a]pyrazin-8-yl)amino)benzoyl)piperazin-1-yl)-1-(piperazin-1-yl) ethan-1-one formate] | 0.936
9 | CCc1cc(Nc2nccn3c(-c4cn(C5CCC5)nc4C(F)(F)F)cnc23)ccc1C(=O)NCCOCCCN [Example 609, N-(2-(3-aminopropoxy)ethyl)-4-((3-(1-cyclobutyl-3-(trifluoromethyl)-1H-pyrazol-4-yl)imidazo[1,2-a]pyrazin-8-yl)amino)-2-ethylbenzamide formate] | 0.086
10 | CCc1cc(Nc2nccn3c(-c4cn(CCF)nc4C(F)(F)F)cnc23)ccc1C(=O)NCCOCCCN [Example 610, N-(2-(3-aminopropoxy)ethyl)-2-ethyl-4-((3-(1-(2-fluoroethyl)-3-(trifluoromethyl)-1H-pyrazol-4-yl)imidazo [1,2-a]pyrazin-8-yl)amino)benzamide formate] | 0.099
11 | CCc1cc(Nc2nccn3c(-c4cn(CC(F)F)nc4C(F)(F)F)cnc23)ccc1C(=O)NCCNC(=O)CN [Example 611, N-(2-(2-aminoacetamido)ethyl)-4-((3-(1-(2,2-difluoroethyl)-3-(trifluoromethyl)-1H-pyrazol-4-yl)imidazo[1,2-a]pyrazin-8-yl)amino)-2-ethylbenzamide formate] | 0.11
12 | CCc1cc(Nc2nccn3c(-c4cn(CC#N)nc4C(F)(F)F)cnc23)ccc1C(=O)NCCOCCCN [Example 612, N-(2-(3-aminopropoxy)ethyl)-4-((3-(1-(cyanomethyl)-3-(trifluoromethyl)-1H-pyrazol-4-yl)imidazo[1,2-a]pyrazin-8-yl)amino)-2-ethylbenzamide formate] | 0.1
13 | CCc1cc(Nc2nccn3c(-c4c[nH]nc4C(F)(F)F)cnc23)ccc1C(=O)NCCOCCCN [Example 613, N-(2-(3-aminopropoxy)ethyl)-2-ethyl-4-((3-(3-(trifluoromethyl)-1H-pyrazol-4-yl)imidazo [1,2-a]pyrazin-8-yl)amino)benzamide formate] | 0.105

same assay, conditions: Acinetobacter baumannii, ATCC17961, 16 h, strain ATCC 17961, OD600 growth over 16 h, read-out: A. baumannii ATCC 17961 IC90

Row | Compound | IC90 [µM]
14 | Cc1cc(Nc2nccn3c(-c4cn(CC5CC5)nc4C(F)(F)F)cnc23)ccc1S(C)(=O)=NCCCN (stereo not drawn) [Example 596, N-[4-[N-(3-aminopropyl)-S-methyl-sulfonimidoyl]-3-methyl-phenyl]-3-[1-(cyclopropylmethyl)-3-(trifluoromethyl)pyrazol-4-yl]imidazo[1,2-α]pyrazin-8-amine formate] | 0.131
15 | Cc1cc(Nc2nccn3c(-c4cn(CC#N)nc4C(F)(F)F)cnc23)ccc1S(C)(=O)=NCCCN (stereo not drawn) [Example 597, 2-[4-[8-[4-[N-(3-aminopropyl)-S-methyl-sulfonimidoyl]-3-methyl-anilino]imidazo[1,2-a]pyrazin-3-yl]-3-(trifluoromethyl)pyrazol-1-yl]acetonitrile] | 0.179
16 | O=C(CN1CCN(C(=O)c2ccc(Nc3nccn4c(-c5cn(CC(F)F)nc5C(F)(F)F)cnc34)cc2Cl)CC1)N[C@H]1CCNC1 [Example 600, (S)-2-(4-(2-chloro-4-((3-(1-(2,2-difluoroethyl)-3-(trifluoromethyl)-1H-pyrazol-4-yl)imidazo[1,2-a]pyrazin-8-yl)amino)benzoyl)piperazin-1-yl)-N-(pyrrolidin-3-yl) acetamide formate] | 0.517
17 | O=C(CN1CCN(C(=O)c2ccc(Nc3nccn4c(-c5cn(CC(F)F)nc5C(F)(F)F)cnc34)cc2Cl)CC1)N[C@@H]1CCNC1 [Example 601, (R)-2-(4-(2-chloro-4-((3-(1-(2,2-difluoroethyl)-3-(trifluoromethyl)-1H-pyrazol-4-yl)imidazo [1,2-a]pyrazin-8-yl)amino)benzoyl)piperazin-1-yl)-N-(pyrrolidin-3-yl) acetamide formate] | 0.422
18 | N#CCn1cc(-c2cnc3c(Nc4ccc(C(=O)N5CCN(CC(=O)N[C@H]6CCNC6)CC5)c(Cl)c4)nccn23)c(C(F)(F)F)n1 [Example 605, (S)-2-(4-(2-chloro-4-((3-(1-(cyanomethyl)-3-(trifluoromethyl)-1H-pyrazol-4-yl)imidazo[1,2-a]pyrazin-8-yl)amino)benzoyl)piperazin-1-yl)-N-(pyrrolidin-3-yl) acetamide formate] | 0.496
